# Results: patent US8648205B2, “Metal complexes of N-heterocyclic carbenes” (The University of Akron, priority 2003, dated 2014)
# Where two headings read alike, the source gives them in different places.
# Key:
# [1] = test system: Escherichia coli
# [2] = test system: P. aeruginosa (ATCC 9027); assay: MIC test in LB broth comparing AgNO3 and complex 106; type: cell-based; parameters: key: +=growth; −=no growth
# [3] = test system: E. coli (ATCC 8739); assay: as above; type: cell-based; parameters: key: +=growth; −=no growth
# [4] = test system: Pseudomonas aeruginosa
# [5] = test system: Staphylococcus aureus; type: cell-based; details: 0.5% solution, 20 μL on 6 mm filter paper disc, over night
# Procedure: (§1) In this test, a filter paper disc of 6 mm diameter was soaked with 20 μL of a silver compound of known concentration, and placed over a lawn of an organism in the agar plate. The diameter of the area in which growth of the organism is inhibited by the test solution was measured after an over night incubation as a measure of the relative antimicrobial activity of the silver compounds. The test organisms were Escherichia coli, Staphylococcus aureus, and Pseudomonas aeruginosa.
# [6] = test system: Pseudomonas aeruginosa; type: cell-based; details: 0.5% solution, 20 μL on 6 mm filter paper disc, over night
# Procedure: as §1
# [7] = test system: Escherichia coli; type: cell-based; details: 0.5% solution, 20 μL on 6 mm filter paper disc, over night
# Procedure: as §1
# [8] = test system: S. aureus (ATCC 6538); assay: MIC test in LB broth comparing AgNO3 and complex 106; type: cell-based; parameters: key: +=growth; −=no growth
# [9] = test system: Staphylococcus aureus; details: Day 1
# [10] = test system: Escherichia coli, Staphylococcus aureus, and Pseudomonas aeruginosa; assay: agar plates overlay method, summary of Table 2; type: cell-based
# Procedure: as §1, with “The usefulness of the compounds represented by Formulas 103 and 55 as antimicrobial agents was evaluated. In” for “In”
# [11] = test system: Pseudomonas aeruginosa; assay: Efficacy data MIC and MBC (Table 7); type: cell-based
# [12] = test system: Yersinia pestis; assay: microbe, parasite or virus in culture; type: cell-based; details: isolate YP1-1CO92-LCR-
# [13] = test system: Alcaligenes xylosoxidans; assay: Efficacy data MIC and MBC (Table 7); type: cell-based
# [14] = test system: Stenotrophomonas maltophilia; assay: Efficacy data MIC and MBC (Table 7); type: cell-based; details: isolate SM AH08
# [15] = test system: Methicillin resistant Staphylococcus aureus (MRSA); assay: Efficacy data MIC and MBC (Table 7); type: cell-based
# [16] = test system: Escherichia coli; assay: Efficacy data MIC and MBC (Table 7); type: cell-based
# [17] = Day 1, supernatant undiluted (Ag: 103 1186, 105 1125, AgN03 3176)
# [18] = Day 2, supernatant undiluted (Ag: 103 1186, 105 1125, AgN03 3176)
# [19] = Day 1, 1DF: AgNO3 1731.18, 106 1675.74 μg/mL
# [20] = Day 1, 2DF: AgNO3 865.59, 106 837.87 μg/mL
# [21] = Day 1, 3DF: AgNO3 432.79, 106 418.94 μg/mL
# [22] = Day 1, 4DF: AgNO3 216.40, 106 209.47 μg/mL
# [23] = Day 1, undiluted: AgNO3 0.50 wt/V % (3462.35 μg/mL), 106 1.38 wt/V % (3341.48 μg/mL)
# [24] = Day 2, 1DF: AgNO3 1731.18, 106 1675.74 μg/mL
# [25] = Day 2, 2DF: AgNO3 865.59, 106 837.87 μg/mL
# [26] = Day 2, 3DF: AgNO3 432.79, 106 418.94 μg/mL
# [27] = Day 2, 4DF: AgNO3 216.40, 106 209.47 μg/mL
# [28] = Day 2, undiluted: AgNO3 0.50 wt/V % (3462.35 μg/mL), 106 1.38 wt/V % (3341.48 μg/mL)
compound,measurement,setting,value
"silver nitrate [AgNO3, reference compound]",growth(+) or no growth(−),[1]; [17],−
same,growth(+) or no growth(−),"[1]; Day 1, supernatant x 1DF",+
same,growth(+) or no growth(−),"[1]; Day 1, supernatant x 2DF",+
same,growth(+) or no growth(−),"[1]; Day 1, supernatant x 3DF",+
same,growth(+) or no growth(−),"[1]; Day 1, supernatant x 4DF",+
same,growth(+) or no growth(−),[1]; [18],+
same,growth / no growth,[2]; [19],−
same,growth / no growth,[2]; [20],−
same,growth / no growth,[2]; [21],−
same,growth / no growth,[2]; [22],−
same,growth / no growth,[2]; [23],−
same,growth / no growth,[2]; [24],−
same,growth / no growth,[2]; [25],−
same,growth / no growth,[2]; [26],−
same,growth / no growth,[2]; [27],−
same,growth / no growth,[2]; [28],−
same,growth / no growth,[3]; [19],−
same,growth / no growth,[3]; [20],−
same,growth / no growth,[3]; [21],−
same,growth / no growth,[3]; [22],−
same,growth / no growth,[3]; [23],−
same,growth / no growth,[3]; [24],−
same,growth / no growth,[3]; [25],−
same,growth / no growth,[3]; [26],−
same,growth / no growth,[3]; [27],+
same,growth / no growth,[3]; [28],−
same,growth(+) or no growth(−),[4]; [17],−
same,growth(+) or no growth(−),"[4]; Day 1, supernatant x 1DF",+
same,growth(+) or no growth(−),"[4]; Day 1, supernatant x 2DF",+
same,growth(+) or no growth(−),"[4]; Day 1, supernatant x 3DF",+
same,growth(+) or no growth(−),"[4]; Day 1, supernatant x 4DF",+
same,growth(+) or no growth(−),[4]; [18],+
same,Diameter of Inhibited Area,[5],10.88 mm
same,Diameter of Inhibited Area,[6],11 mm
same,Diameter of Inhibited Area,[7],11.38 mm
same,growth / no growth,[8]; [19],−
same,growth / no growth,[8]; [20],−
same,growth / no growth,[8]; [21],−
same,growth / no growth,[8]; [22],−
same,growth / no growth,[8]; [23],−
same,growth / no growth,[8]; [24],−
same,growth / no growth,[8]; [25],−
same,growth / no growth,[8]; [26],−
same,growth / no growth,[8]; [27],+
same,growth / no growth,[8]; [28],−
same,growth(+) or no growth(−),"[9]; supernatant undiluted (Ag: 103 1186, 105 1125, AgN03 3176)",+
same,growth(+) or no growth(−),[9]; supernatant x 1DF,+
same,growth(+) or no growth(−),[9]; supernatant x 2DF,+
same,growth(+) or no growth(−),[9]; supernatant x 3DF,+
same,growth(+) or no growth(−),[9]; supernatant x 4DF,+
OCCCN1C=CN(Cc2cccc(CN3C=CN(CCCO)C3)n2)C1 [Compound 102],antimicrobial properties (Table 2 summary),[10],no antimicrobial activity
same,Diameter of Inhibited Area,[5],6 mm
same,Diameter of Inhibited Area,[6],6 mm
same,Diameter of Inhibited Area,[7],6 mm
CC(C)Cc1ccc(C(C)C(=O)[O][Ag][c]2n(C)c3c(=O)n(C)c(=O)n(C)c3[n+]2C)cc1 (stereo not drawn) [SCC1-IBU],MBC,[11]; isolate PA 01-V,6 µg/mL
same,MIC,[11]; isolate PA 01-V,2 µg/mL
same,MBC,[11]; isolate PA HP3,2 µg/mL
same,MIC,[11]; isolate PA HP3,0.25 µg/mL
same,MBC,[11]; isolate PA LF05,1 µg/mL
same,MIC,[11]; isolate PA LF05,1 µg/mL
same,MBC,[11]; isolate PA M57-15,2 µg/mL
same,MIC,[11]; isolate PA M57-15,1 µg/mL
same,MBC,[11]; isolate PA RR05,2 µg/mL
same,MIC,[11]; isolate PA RR05,0.25 µg/mL
same,MBC,[12],2 µg/mL
same,MIC,[12],0.5 µg/mL
same,MBC,[13]; isolate AX 22,2 µg/mL
same,MIC,[13]; isolate AX 22,0.5 µg/mL
same,MBC,[13]; isolate AX RE05,2 µg/mL
same,MIC,[13]; isolate AX RE05,1 µg/mL
same,MBC,[14],2 µg/mL
same,MIC,[14],1 µg/mL
same,MBC,[15]; isolate SA EH06,4 µg/mL
same,MIC,[15]; isolate SA EH06,2 µg/mL
same,MBC,[15]; isolate SA LL06,6 µg/mL
same,MIC,[15]; isolate SA LL06,2 µg/mL
same,MBC,[16]; isolate J53,0.5 µg/mL
same,MIC,[16]; isolate J53,0.5 µg/mL
same,MBC,[16]; isolate J53 + pMG101,>20 µg/mL
same,MIC,[16]; isolate J53 + pMG101,>20 µg/mL
OCCN1C=CN(Cc2cccc(CN3C=CN(CCO)C3)n2)C1 [Compound 101],antimicrobial properties (Table 2 summary),[10],no antimicrobial activity
same,Diameter of Inhibited Area,[5],6 mm
same,Diameter of Inhibited Area,[6],6 mm
same,Diameter of Inhibited Area,[7],6 mm
